# Data published in patent US7335679B2 (Arizona Board of Regents on behalf of the University of …, priority 2001, dated 2008).
# System: C57BL6 mice
# Assay: in vivo toxicity in mice, ip daily for 4 days
# Conditions: ip daily × 4, MTD = >10% body weight loss
# Text: Highlighted are the compounds being made for antitumor testing.
smiles,measurement,value
"COC[C@H]1OC(=O)c2coc3c2[C@@]1(C)C1=C(C3=O)[C@@H]2CCC(=O)[C@@]2(C)C[C@H]1OC(C)=O [wortmannin, reference compound]",Maximum tolerated dose mg/kg ip qD × 4,2.5 mg/kg
